Laboratory results published in patent US20100298141A1, “SUBSTITUTED PYRIDINE N-OXIDE HERBICIDES” (E. I. DU PONT DE NEMOURS AND COMPANY, priority 2007, published 2010).

Tests used:
Assay in all cases: Test B flooded paddy test
Conditions in all cases: Flood, 250 g ai/ha, 13 to 15 days; scale 0 to 100, 0 no effect, 100 complete control
[1] = test system: umbrella sedge; assay type: in vivo, Cyperus difformis
From the text: (§1) At time of treatment, test pots were flooded to 3 cm above the soil surface, treated by application of test compounds directly to the paddy water, and then maintained at that water depth for the duration of the test. Treated plants and controls were maintained in a greenhouse for 13 to 15 days, after which time all species were compared to controls and visually evaluated. […] A dash (-) response means no test result.

[2] = test system: duck salad; assay type: in vivo, Heteranthera limosa
From the text: as §1

[3] = test system: barnyardgrass; assay type: in vivo, Echinochloa crus-galli
From the text: as §1

[4] = test system: rice; assay type: in vivo, Oryza sativa
From the text: as §1

SMILES | Plant response rating, Umbrella Sedge [1] | Plant response rating, Ducksalad [2] | Plant response rating, Barnyardgrass [3] | Plant response rating, Rice, Transplanted [4]
CC(c1c(C(F)(F)F)nn(C)c1OC(F)F)S(=O)(=O)c1cccc[n+]1[O-] (centres unmarked) [Compound 5] | 100 | 90 | 80 | 70
Cn1nc(C(F)(F)F)c(C[S+]([O-])c2ccc(Cl)c[n+]2[O-])c1OC(F)F (centres unmarked) [Compound 6] | 100 | 100 | 80 | 60
